Holding throughout (type): cell-based
For assay [1], the system named is HTT mRNA. Kind of assay: Splicing RT-qPCR assay (THP), Table 2A. As to conditions: Table 2A (THP); for AC50: AJ mRNA increase, read-out: HTT AJ (increase in alternative junction mRNA, AC50); for IC50: CJ mRNA decrease, read-out: HTT CJ (decrease in canonical junction mRNA, IC50).
For assay [2], the system named is MYB mRNA. Briefly: Splicing RT-qPCR assay (THP), Table 2A. Conditions: Table 2A (THP); for AC50: AJ mRNA increase, read-out: MYB AJ (increase in alternative junction mRNA, AC50); for IC50: CJ mRNA decrease, read-out: MYB CJ (decrease in canonical junction mRNA, IC50). Background: Real-time PCR tracks product formation cycle by cycle.
In assay [3] the test system is HTT mRNA. Briefly: Gene panel canonical junction qPCR assay, decrease in CJ mRNA, Table 3. Conditions: decrease in canonical junction (CJ) mRNA, gene panel qPCR, Table 3. Summed up: (§1)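 A673 cells were plated, left to adhere for 24 h, then dosed; K562 cells were plated in 96- or 384-well format and dosed directly. Both were incubated 24 h at 37 °C with an 11-point 3-fold series (top 10 uM final). Canonical junction mRNA was then read by cDNA synthesis and qPCR.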

The test system of assay [4] is MYB mRNA. The description is as above. Conditions: decrease in canonical junction (CJ) mRNA, gene panel qPCR, Table 3. Summed up:
as §1

The test system of assay [5] is SH-SY5Y (human neuroblastoma) cells. Kind of assay: Cell viability, Cell Titer Glo 2.0 assay. As to conditions: read-out: Viability SHSY5Y.3 GI50. Summed up:
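SH-SY5Y neuroblastoma cells are exposed to test compounds for 72 hours at 37 °C and 5% CO2, with final DMSO held at 0.1%. Cell viability is then measured with the CellTiter-Glo 2.0 assay.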
A general note: Cellular ATP, detected with luciferase, serves as a proxy for viable cell number.

This note sets out measurements from patent publication US20260285853A1, “COMPOUNDS AND METHODS FOR MODULATING SPLICING” (REMIX THERAPEUTICS INC., priority 2023, published 2026).

A word on the AC50: it is the concentration giving half of the maximal activity seen. Broadly, the IC50 is the point on the concentration scale where inhibition reaches its midpoint. What is called GI50 is the concentration that inhibits growth by half.

For `COc1cc2nc(CF)cn2cc1NC(=O)c1c(F)cc(N2CCC(NC3CC3)CC2)c2cn(C)nc12` [Compound 407, [cyclopropyl-[1-[6-fluoro-7-[[2-(fluoromethyl)-7-methoxy-imidazo[1,2-a]-pyridin-6-yl]carbamoyl]-2-methyl-indazol-4-y1]-4-piperidyl]amino] 2,2,2-trifluoroacetate], the AC50 in assay [1] is > 10 µM; in assay [2], < 0.1 µM. Moreover, the IC50 in assay [1] is > 10 µM; in assay [2], < 0.1 µM; in assay [3], > 10 µM; in assay [4], < 0.1 µM. Further, the GI50 in assay [5] was 1 to 10 µM.
In the case of `Cc1cn2cc(NC(=O)c3c(F)cc(N4CCC(NC5CC5)CC4)c4cn(C)nc34)nc(Oc3ccccn3)c2n1` [Compound 408, 4-[4-(cyclopropylamino)-1-piperidy1]-6-fluoro-2-methyl-N-[2-methyl-8-(2-pyridyloxy)imidazo[1,2-a]-pyrazin-6-yl]indazole-7-carboxamide], the AC50 in assay [1] was 0.1 to 1 µM; in assay [2] it was < 0.1 µM. Also, the IC50 was 1 to 10 µM in assay [1], < 0.1 µM in assay [2], 1 to 10 µM in assay [3] and < 0.1 µM in assay [4]. Moreover, in assay [5], the GI50 lay in the range of 0.1 to 1 µM.
`Cc1cn2cc(NC(=O)c3c(F)cc(N4CCC(NC5CC5)CC4)c4cn(C)nc34)cc(Oc3cccnn3)c2n1` [Compound 409]: the AC50 in assay [1] is > 10 µM; in assay [2] it was 1 to 10 µM. Also, the IC50 was 1 to 10 µM in assay [1], 0.1 to 1 µM in assay [2], 1 to 10 µM in assay [3] and 0.1 to 1 µM in assay [4]. In assay [5], the GI50 is > 10 µM.
As to `Cc1cn2cc(NC(=O)c3c(F)cc(N4CCC(NC5CC5)CC4)c4cn(C)nc34)cc(Oc3cn[nH]c3)c2n1` [Compound 410, N-(8-((1H-pyrazol-4-yl)oxy)-2-methylimidazo[1,2-a]-pyridin-6-yl)-4-(4-(cyclopropylamino)piperidin-1-yl)-6-fluoro-2-methyl-2H-indazole-7-carboxamide 2,2,2-trifluoroacetate], the AC50 in assay [1] and in assay [2] was > 10 µM in each case. Moreover, the 50% inhibitory concentration (IC50) in assay [1], in assay [2], in assay [3] and in assay [4] was > 10 µM each time. For the same compound, in assay [5], the GI50 is > 10 µM.
For the compound `Cn1cc2c(N3CCC(NC4CC4)CC3)cc(F)c(C(=O)Nc3cccnc3O)c2n1` [Compound 411, 4-[4-(cyclopropylamino)-1-piperidyl]-6-fluoro-N-(2-hydroxy-3-pyridyl)-2-methyl-indazole-7-carboxamide], the AC50 in assay [1] and in assay [2] was > 10 µM in each case. Besides, the IC50 is 1 to 10 µM in assay [1], > 10 µM in assay [2], 1 to 10 µM in assay [3] and > 10 µM in assay [4]. In addition, the 50% growth inhibitory concentration (GI50) in assay [5] is > 10 µM.
Regarding `COc1ncccc1NC(=O)c1c(F)cc(N2CCC(NC3CC3)CC2)c2cn(C)nc12` [Compound 412, 4-(4-(cyclopropylamino)piperidin-1-yl)-6-fluoro-N-(2-methoxypyridin-3-yl)-2-methyl-2H-indazole-7-carboxamide], the AC50 in assay [1] was > 10 µM; in assay [2], 1 to 10 µM. The IC50 in assay [1] was > 10 µM; in assay [2] it was 1 to 10 µM; in assay [3], > 10 µM; in assay [4], 1 to 10 µM. Moreover, the GI50 in assay [5] fell in the range of 1 to 10 µM.
`COc1nnccc1NC(=O)c1c(F)cc(N2CCC(NC3CC3)CC2)c2cn(C)nc12` [Compound 413, 4-[4-(cyclopropylamino)-1-piperidyl]-6-fluoro-N-(3-methoxypyridazin-4-yl)-2-methyl-indazole-7-carboxamide]: the AC50 was > 10 µM in assay [1] and 1 to 10 µM in assay [2]. In addition, the IC50 is 1 to 10 µM in assay [1], > 10 µM in assay [2], 1 to 10 µM in assay [3] and > 10 µM in assay [4]. In addition, in assay [5], the GI50 lay in the range of 1 to 10 µM.
In the case of `COc1ccncc1NC(=O)c1c(F)cc(N2CCC(NC3CC3)CC2)c2cn(C)nc12` [Compound 414, 4-[4-(cyclopropylamino)-1-piperidyl]-6-fluoro-N-(4-methoxy-3-pyridyl)-2-methyl-indazole-7-carboxamide], the AC50 in assay [1] and in assay [2] was > 10 µM each time. The IC50 in assay [1], in assay [2], in assay [3] and in assay [4] was > 10 µM in each case. Besides, the GI50 in assay [5] is > 10 µM.
Turning to `CCOc1cc2nn(C)cc2cc1NC(=O)c1c(F)cc(N2CCC(NC3CC3)CC2)c2cn(C)nc12` [Compound 415, 4-[4-(cyclopropyl-amino)-1-piperidyl]-N-(6-ethoxy-2-methylindazol-5-yl)-6-fluoro-2-methylindazole-7-carboxamide], the figures for the AC50 in assay [1] and in assay [2] were 0.1 to 1 µM and < 0.1 µM, respectively. Further, the IC50 is 0.1 to 1 µM in assay [1], < 0.1 µM in assay [2], 0.1 to 1 µM in assay [3] and < 0.1 µM in assay [4]. In addition, the GI50 in assay [5] is 0.1 to 1 µM.
Turning to `Cc1nc(CNS(C)(=O)=O)cn2cc(NC(=O)c3c(F)cc(N4CCC(NC5CC5)CC4)c4cn(C)nc34)nc12` [Compound 416, 4-(4-(cyclopropylamino)-piper-idin-1-yl)-6-fluoro-2-meth-yl-N-(8-methyl-6-(methyl-sulfonamidomethyl)-imidazo[1,2-a]pyrazin-2-yl)-2H-indazole-7-carbox-amide 2,2,2-trifluoroacetate], the AC50 in assay [1] and in assay [2] was > 10 µM each time. Besides, the IC50 in assay [1], in assay [2], in assay [3] and in assay [4] was > 10 µM throughout. For the same compound, the GI50 in assay [5] was > 10 µM.
In the case of `Cc1cn2cc(NC(=O)c3c(F)cc(N4CCC(NC5CC5)CC4)c4cn(C)nc34)c(Oc3ccccc3)cc2n1` [Compound 417, 4-[4-(cyclopropylamino)-1-piperidyl]-6-fluoro-2-methyl-N-(2-methyl-7-phenoxyimidazo[1,2-a]pyridin-6-yl)-indazole-7-carboxamide], the AC50 in assay [1] was 1 to 10 µM; in assay [2], < 0.1 µM. Also, the IC50 was > 10 µM in assay [1], < 0.1 µM in assay [2], > 10 µM in assay [3] and < 0.1 µM in assay [4]. Moreover, in assay [5], the GI50 fell in the range of 0.1 to 1 µM.
On to `COc1cc2nn(C)c(C)c2cc1NC(=O)c1c(F)cc(N2CCC(NC3CC3)CC2)c2cn(C)nc12` [Compound 418, 4-[4-(cyclopropylamino)-1-piperidyl]-6-fluoro-N-(6-methoxy-2,3-dimethyl-indazol-5-yl)-2-methyl-indazole-7-carboxamide], for which the AC50 in assay [1] was > 10 µM; in assay [2], 0.1 to 1 µM. Moreover, the IC50 was > 10 µM in assay [1], 1 to 10 µM in assay [2], > 10 µM in assay [3] and 1 to 10 µM in assay [4]. Besides, in assay [5], the concentration for 50% growth inhibition (GI50) was in the range of 0.1 to 1 µM.
On to `COc1c(NC(=O)c2c(F)cc(N3CCC(NC4CC4)CC3)c3cn(C)nc23)cn2cc(C)nc(C)c12` [Compound 419, 4-[4-(cyclopropylamino)-1-piperidyl]-6-fluoro-N-(8-methoxy-1,3-dimethyl-pyrrolo[1,2-a]pyrazin-7-yl)-2-methyl-indazole-7-carboxamide], for which the AC50 is > 10 µM in assay [1] and 1 to 10 µM in assay [2]. Moreover, the IC50 in assay [1] was > 10 µM; in assay [2] it was 1 to 10 µM; in assay [3] it was > 10 µM; in assay [4], 1 to 10 µM. The GI50 in assay [5] lay within 1 to 10 µM.
